Experimental data taken from US7122335B1, “Compounds and methods to enhance rAAV transduction” (priority 1999, dated 2006).

Tests used:
[1] = Solubility in ethanol; assay type: physicochemical
[2] = test system: polarized human bronchial epithelia; assay: S35-labeled rAAV binding/entry assay in polarized bronchial epithelia; assay type: cell-based
Method: FIGS. 12A and 12B. Binding and uptake of S^35-labeled AV.GFP3ori in fully differentiated human bronchial epithelia. The ability of polarized bronchial epithelia to bind and internalize virus from the apical or the basolateral surfaces was quantified using S^35-labeled rAAV. The binding assay was performed after incubation with virus at 4° C. for 1 hour, followed by repeated washing in PBS. The combined bound and internalized virus was quantified following incubation with virus at 4° C. for 1 hour, and subsequent incubation at 37° C. for 2 hours and 24 hours. Non-specific background binding of radiolabeled virus was determined in parallel studies on collagen coated empty chambers not seeded with bronchial cells. Background counts (averaging 15.67+/−5.17 cpm/well) were subtracted from experimental sample counts prior to analysis. Data in the right side of each figure is presented as the net cpms of bound/internalized virus (raw counts minus background counts of empty transwells). The results represent the mean (+/−SEM) of 6 independent transwells for each condition. Experiments were performed in triplicate from two independent tissue samples. The significance of the differences between each pair of samples (with or without LLnL) was evaluated using the Student's t-test and p-values are provided in brackets above the data for each condition. To correlate uptake of radioactive virus with the functional expression the rAAV encoded transgene, GFP expression from the same set of samples was quantified at 24 hour post-infection by indirect fluorescent microscopy. […]
Viral binding/entry assays and in situ localization of viral particles. […] Combined binding/entry of rAAV into differentiated airway epithelia was measured under the same conditions, except that the cultures were incubated at 37° C. for an additional 2–24 hours before they were harvested. […] After washing three times in PBS, cells were lysed in situ by the addition of 5 ml of liquid scintillation cocktail at room temperature for 5 minutes, and the radioactivity was quantitated in a scintillation counter.

N-acetyl-L-leucinyl-L-leucinal-L-norleucinal [LLnL]
solubility in ethanol [1]: poor solubility | uptake of S35 labeled rAAV ([2]; 2 hour infection period at 37° C.): not altered | amount of intracellular radioactivity ([2]; 24 hours post-infection, either surface infected): very significant decrease | 4° C. rAAV binding ([2]; S35 labeled rAAV, with or without LLnL): no significant effect
